Laboratory results as given in the NIST ThermoML archive (doi:10.1021/acs.jced.5b00474).
Several values for one entry are separate records, joined by “and”; a condition that tells them apart may be missing. Equal values may be shown once.

Columns and labels:
[1] = 101 kPa; for speed of sound: Frequency=3 MHz, Sing-around technique in a fixed-path interferometer; for mass density: Vibrating tube method
[2] = xn = mol fraction of the nth substance listed; details: 101 kPa, Liquid; for speed of sound: Frequency=3 MHz, Sing-around technique in a fixed-path interferometer; for mass density: Vibrating tube method

O=C1CCCN1 [2-pyrrolidinone]
[1], Metastable liquid
Details	mass density [kg/m3]	speed of sound [m/s]
293.15 K	1111.44	1649.3
298.15 K	1107.35	1632.9
301.15 K	1104.88	–
303.15 K	1103.26	1616.7
308.15 K	1099.17	1600.5
313.15 K	1095.08	1584.5
318.16 K	1091	1568.6
323.16 K	1086.92	1552.8

CN1CCCC1=O [N-methylpyrrolidone]
[1], Liquid
Details	mass density	speed of sound
293.15 K	1032.25 kg/m3 and 1032.51 kg/m3	1564.7 m/s
298.14 K	1028.07 kg/m3	1545.5 m/s
298.15 K	1027.79 kg/m3	1544.6 m/s
303.14 K	1023.61 kg/m3	1526.1 m/s
303.15 K	1023.33 kg/m3	1525.3 m/s
308.15 K	1019.15 kg/m3 and 1018.87 kg/m3	1506 m/s and 1506.9 m/s
313.15 K	1014.41 kg/m3	1486.8 m/s
318.15 K	1009.95 kg/m3	1467.8 m/s
323.16 K	1005.48 kg/m3	1448.9 m/s

CN1CCCC1=O [N-methylpyrrolidone] + ClC(Cl)Cl
[2], x1 = 1
Details	mass density [kg/m3]	speed of sound [m/s]
293.15 K	1032.51	1564.7
298.14 K	1028.07	1545.5
303.14 K	1023.61	1526.1
308.15 K	1019.15	1506.9

CC#N [acetonitrile]
[1], Liquid
Details	mass density	speed of sound
293.15 K	781.989 kg/m3	–
298.15 K	776.609 kg/m3 and 776.616 kg/m3	1278.9 m/s and 1278.6 m/s
303.15 K	771.183 kg/m3 and 771.178 kg/m3	1259 m/s and 1258.4 m/s
308.15 K	765.722 kg/m3 and 765.719 kg/m3	1239.1 m/s and 1238.3 m/s
313.15 K	760.223 kg/m3 and 760.231 kg/m3	1219.3 m/s and 1218.2 m/s
318.15 K	754.709 kg/m3	1199.5 m/s
318.16 K	754.702 kg/m3	1198.1 m/s
323.16 K	749.144 kg/m3 and 749.15 kg/m3	1178 m/s and 1179.6 m/s

CC#N [acetonitrile] + CN1CCCC1=O
[2], x2 = 0
Details	mass density [kg/m3]	speed of sound [m/s]
293.15 K	781.989	–
298.15 K	776.616	1278.6
303.15 K	771.178	1258.4
308.15 K	765.719	1238.3
313.15 K	760.223	1218.2
318.16 K	754.702	1198.1
323.16 K	749.144	1178

CC#N [acetonitrile] + O=C1CCCN1
[2], x2 = 0
Details	mass density [kg/m3]	speed of sound [m/s]
298.15 K	776.609	1278.9
303.15 K	771.183	1259
308.15 K	765.722	1239.1
313.15 K	760.231	1219.3
318.15 K	754.709	1199.5
323.16 K	749.15	1179.6

ClC(Cl)Cl [trichloromethane]
[1], Liquid
Details	mass density	speed of sound
293.15 K	1487.52 kg/m3 and 1488.55 kg/m3	1001.5 m/s and 1000.9 m/s
295.15 K	1483.74 kg/m3	–
297.15 K	1479.93 kg/m3	–
298.15 K	1478.02 kg/m3 and 1479.07 kg/m3	984.65 m/s and 984.33 m/s
303.15 K	1468.47 kg/m3	967.76 m/s
303.16 K	1469.52 kg/m3	967.53 m/s
308.15 K	1459.91 kg/m3	950.62 m/s
308.16 K	1458.85 kg/m3	950.87 m/s

ClC(Cl)Cl [trichloromethane] + O=C1CCCN1
[2], x2 = 0
Details	mass density [kg/m3]	speed of sound [m/s]
293.15 K	1487.52	1001.5
295.15 K	1483.74	–
297.15 K	1479.93	–
298.15 K	1478.02	984.65
303.15 K	1468.47	967.76
308.16 K	1458.85	950.87
